Assay results from PMC6224480, “Insights into Kinesin-1 Activation from the Crystal Structure of KLC2 Bound to JIP3” (Structure(London, England:1993), 2018).
No end group written: not given here. *: point of attachment. FITC = O=C1OC2(c3ccc(O)cc3Oc3cc(O)ccc32)c2ccc(NC(=S)*)cc21

Legend:
KLC2^TPR-myc = biological target: T1, KLC2^TPR-myc (Mus musculus, UniProt O88448); assay: Fluorescence anisotropy-based binding competition against FITC-LFP motif peptide; parameters: species or system murine; details: FITC-LFP peptide 300 nM, KLC2^TPR-myc 21 μM, Trp-JIP3^LZ two independent experiments, CSTN-WD1 one experiment
T1 construct: comprised murine KLC2 residues 191-480; His6-SUMO (N, cleaved yes); made in house; host or cells: E. coli BL21(DE3) Rosetta
T1 sequence (O88448 191-480): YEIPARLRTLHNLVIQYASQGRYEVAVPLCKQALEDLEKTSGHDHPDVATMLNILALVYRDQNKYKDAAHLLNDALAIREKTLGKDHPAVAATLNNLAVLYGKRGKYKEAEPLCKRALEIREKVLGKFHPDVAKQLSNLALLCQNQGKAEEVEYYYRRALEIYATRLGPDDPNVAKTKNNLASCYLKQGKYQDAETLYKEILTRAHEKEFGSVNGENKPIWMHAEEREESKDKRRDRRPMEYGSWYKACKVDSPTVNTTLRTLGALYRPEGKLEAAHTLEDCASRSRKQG
Source text: Kinesin-1 activation by JIP3 requires JIP3^LZ binding to KLC^TPR ([Watt et al., 2015]). How does JIP3^LZ binding to the KLC^TPR relieve KLC regulation of the kinesin-1 molecule? Tryptophan-acidic cargoes activate kinesin-1 by releasing the KLC LFP motif from the KLC^TPR ([Yip et al., 2016]). […] We therefore wondered whether JIP3^LZ binding to the KLC2^TPR allosterically regulates interactions between KLC2^TPR and the LFP motif. We investigated this using an in vitro, fluorescence anisotropy-based binding competition assay with purified proteins and peptides ([Yip et al., 2016]). […] Thus, JIP3 activates kinesin-1 by a different mechanism to tryptophan-acidic cargoes.
The binding affinity between the FITC-labelled LFP-motif peptide and the KLC2^TPR-myc was measured essentially as described previously ([Yip et al., 2016]). FITC-labelled LFP motif peptide (300 nM) was incubated with 2-fold dilutions of KLC2^TPR-myc in assay buffer (0.1 M NaCl, 25 mM HEPES, 5 mM MgCl2, 1 mM TCEP, final pH 7.5) in triplicate in 384-well plates, for 1 hour at room temperature. Fluorescence measurements were recorded on a TecanSpark plate reader at excitation and emission wavelengths of 488 nm and 535 nm respectively. Fluorescence anisotropy values were calculated at each KLC2^TPR-myc concentration and the data were fitted with a fixed-slope dose response curve in Prism (GraphPad). […]

wild-type KLC2^TPR-myc = assay: ITC of Trp-JIP3^LZ or FITC-CSTN-WD2 peptide into wild-type KLC2^TPR-myc; type: binding, murine; details: n = 2
Protocol: (§1) The Trp-JIP3^LZ protein used for CD and ITC experiments was prepared as described above for the JIP3^LZ, with the following modifications. Following 3C cleavage, contaminating GST3C was removed by incubation of the eluate with fresh, pre-equilibrated glutathione sepharose 4B resin for 2 hours at room temperature. The Trp-JIP3^LZ was then further purified by size exclusion chromatography using a Superdex 75 16/600 column equilibrated in 100 mM NaCl, 25 mM HEPES, 1 mM TCEP (final pH 7.5). Wild-type/mutant KLC2^TPR-myc samples used for CD and ITC experiments were prepared as described above the KLC2^TPR used in crystallographic studies. The Trp-JIP3^LZ and KLC2^TPR-myc samples used in the fluorescence anisotropy-based binding competition assays were prepared as for those used in the CD and ITC studies, but the final size-exclusion step was performed in 100 mM NaCl, 25 mM HEPES, 5mM MgCl2, 1 mM TCEP (final pH 7.5).
To study binding of the Trp-JIP3^LZ and FITC-CSTN-WD2 peptide to wild-type and mutant KLC2^TPR-myc, the recombinant proteins were prepared by size exclusion chromatography in 0.1 M NaCl, 25 mM HEPES, 1 mM TCEP, final pH 7.5. Wild-type or mutant KLC2^TPR-myc at 44-50 μM were placed in the cell. The Trp-JIP3^LZ was used as the titrant at dimer concentrations of 297-330 μM. The FITC-CSTN-WD2 peptide was used as the titrant at a concentration of 380 μM. The peptide concentration was determined by measuring the absorbance at 483 nm and using a molar extinction coefficient of 68,000 M^-1cm^-1. ITC experiments were performed as described above with injections spaced 120-150 s apart. Thermograms were integrated and corrected for heats of dilution using NITPIC (http://biophysics.swmed.edu/MBR/software.html). The resulting isotherms were analysed in SEDPHAT. Data for the Trp-JIP3^LZ as titrant were fitted with the A + B + B → AB + B → ABB model, whilst binding of the FITC-CSTN-WD2 peptide was analysed using the A + B → AB model. Between 2 and 3 experiments were performed for each titrand/titrant pair. For each titrand/titrant pair, the isotherms from the experiments were globally fitted with the relevant model. […] During fitting, the FITC-CSTN-WD2 peptide concentrations consistently refined to values around 30% greater than the measured value of 380 μM, with Napp values around 0.7 (Table S2). We ascribe this to an under-quantification of the FITC-CSTN-WD2 peptide concentration since the peptide contains a single tryptophan-acidic motif, and the concentration values for experiments with Trp-JIP3^LZ as ligand refined close to their measured values.

[1] = system: KLC2^TPR-myc Thr^200Asp (T200D); assay: ITC of FITC-CSTN-WD2 peptide into T200D KLC2^TPR-myc; type: binding, murine; details: 25°C, 0.1 M NaCl, n = 3
Source text: (§2) The KLC2^TPR construct used in this work comprised murine KLC2 residues 191-480, which is similar to those used in previous studies ([Nguyen et al., 2017], [Zhu et al., 2012]) but with a slightly longer N-terminal region to include residues 191-194, which are very highly conserved in Bilaterian KLCs. To construct the pMW-His6-SUMO-KLC2^TPR vector, the sequence encoding KLC2^TPR (residues 191-480) was amplified by PCR from a murine template ([Dodding et al., 2011]) and cloned into the NotI/EcoRI sites of pMW his-SUMO. The His6-SUMO- KLC2^TPR-myc vectors were constructed likewise, but using a reverse primer sequence encoding the KLC^TPR C-terminal region up to residue 480, a BglII site, and an in-frame myc-tag sequence, thus fusing the amino acid sequence […] to the KLC2^TPR C-terminus. KLC2^TPR-myc mutants (Thr^200Asp, Tyr^208Ala, Gln^223Lys and Arg^312Glu) were generated by overlap PCR.
The Trp-JIP3^LZ protein used for CD and ITC experiments was prepared as described above for the JIP3^LZ, with the following modifications. […] The Trp-JIP3^LZ and KLC2^TPR-myc samples used in the fluorescence anisotropy-based binding competition assays were prepared as for those used in the CD and ITC studies, but the final size-exclusion step was performed in 100 mM NaCl, 25 mM HEPES, 5mM MgCl2, 1 mM TCEP (final pH 7.5).
To study binding of the Trp-JIP3^LZ and FITC-CSTN-WD2 peptide to wild-type and mutant KLC2^TPR-myc, the recombinant proteins were prepared by size exclusion chromatography in 0.1 M NaCl, 25 mM HEPES, 1 mM TCEP, final pH 7.5. […] The peptide concentration was determined by measuring the absorbance at 483 nm and using a molar extinction coefficient of 68,000 M^-1cm^-1. […] The resulting isotherms were analysed in SEDPHAT. Data for the Trp-JIP3^LZ as titrant were fitted with the A + B + B → AB + B → ABB model, whilst binding of the FITC-CSTN-WD2 peptide was analysed using the A + B → AB model. […] During fitting, the FITC-CSTN-WD2 peptide concentrations consistently refined to values around 30% greater than the measured value of 380 μM, with Napp values around 0.7 (Table S2). […]

[2] = system: KLC2^TPR-myc Tyr^208Ala (Y208A); assay: ITC of FITC-CSTN-WD2 peptide into Y208A KLC2^TPR-myc; type: binding, murine; details: n = 2
Source text: as §2
as §1, with “Wild-type/mutant KLC2^TPR-myc samples used for CD and ITC experiments were prepared as described above the KLC2^TPR used in crystallographic studies.” left out
(§3) To study binding of the Trp-JIP3^LZ and FITC-CSTN-WD2 peptide to wild-type and mutant KLC2^TPR-myc, the recombinant proteins were prepared by size exclusion chromatography in 0.1 M NaCl, 25 mM HEPES, 1 mM TCEP, final pH 7.5. […] The peptide concentration was determined by measuring the absorbance at 483 nm and using a molar extinction coefficient of 68,000 M^-1cm^-1. […] The resulting isotherms were analysed in SEDPHAT. Data for the Trp-JIP3^LZ as titrant were fitted with the A + B + B → AB + B → ABB model, whilst binding of the FITC-CSTN-WD2 peptide was analysed using the A + B → AB model. […] During fitting, the FITC-CSTN-WD2 peptide concentrations consistently refined to values around 30% greater than the measured value of 380 μM, with Napp values around 0.7 (Table S2). We ascribe this to an under-quantification of the FITC-CSTN-WD2 peptide concentration since the peptide contains a single tryptophan-acidic motif, and the concentration values for experiments with Trp-JIP3^LZ as ligand refined close to their measured values.

KLC2 L220Y mutant = assay: ITC of FITC-CSTN-WD2 peptide into L220Y KLC2^TPR-myc; type: binding, murine; details: 25°C, 0.1 M NaCl, n = 2
Protocol: as §1
as §3, with “7.5. Wild-type or mutant KLC2^TPR-myc at 44-50 μM were placed in the cell. The Trp-JIP3^LZ was used as the titrant at dimer concentrations of 297-330 μM.” for “7.5.”

[3] = system: wild-type and mutant KLC2^TPR-myc; assay: ITC with wild-type and/or TPR1-mutant KLC2^TPR-myc (collective statements); type: binding, murine
Protocol: as §1
To study binding of the Trp-JIP3^LZ and FITC-CSTN-WD2 peptide to wild-type and mutant KLC2^TPR-myc, the recombinant proteins were prepared by size exclusion chromatography in 0.1 M NaCl, 25 mM HEPES, 1 mM TCEP, final pH 7.5. […] The peptide concentration was determined by measuring the absorbance at 483 nm and using a molar extinction coefficient of 68,000 M^-1cm^-1. […] The resulting isotherms were analysed in SEDPHAT. […]

[4] = FITC-CSTN-WD2, 25°C, 0.1 M NaCl, pH 7.5, global fit
[5] = 25 mM HEPES, 1 mM TCEP, pH 7.5, A + B → AB model, global fit
[6] = 25°C, 0.1 M NaCl, pH 7.5, global fit

| Substance | effect on binding of KLC2^TPR-myc to FITC-labeled LFP motif peptide (KLC2^TPR-myc) | K, macroscopic association constant (wild-type KLC2^TPR-myc; FITC-CSTN-WD2, 25°C, 0.1 M NaCl, 25 mM HEPES, 1 mM TCEP, pH 7.5, A + B → AB model, global fit) | -TΔS (wild-type KLC2^TPR-myc; [4]) | ΔH (wild-type KLC2^TPR-myc; [4]) | Napp, apparent binding stoichiometry (wild-type KLC2^TPR-myc; FITC-CSTN-WD2, mean ± standard deviation) | K, macroscopic association constant [1, 5] | -TΔS ([1]; pH 7.5, global fit) | ΔH ([1]; pH 7.5, global fit) | K, macroscopic association constant ([2]; 25°C, 0.1 M NaCl, 25 mM HEPES, 1 mM TCEP, pH 7.5, A + B → AB model, global fit) | -TΔS [2, 6] | ΔH [2, 6] | Napp, apparent binding stoichiometry ([2]; mean ± standard deviation) | K, macroscopic association constant (KLC2 L220Y mutant; [5]) | -TΔS (KLC2 L220Y mutant; pH 7.5, global fit) | ΔH (KLC2 L220Y mutant; pH 7.5, global fit) | Napp values ([3]; FITC-CSTN-WD2, wild-type and mutant KLC2^TPR-myc, ascribed to under-quantification of the peptide concentration) | effect of the three TPR1 mutations on binding ([3]; all three mutations in TPR1 of KLC2^TPR-myc, ITC) |
| --- | --- | --- | --- | --- | --- | --- | --- | --- | --- | --- | --- | --- | --- | --- | --- | --- | --- |
| Ac-GKENEMDWDDSALTITVN [CSTN-WD1] | blocked binding | – | – | – | – | – | – | – | – | – | – | – | – | – | – | – | – |
| {FITC}-TRQLEWDDSTL-OH [FITC-CSTN-WD2, FITC-labeled tryptophan-acidic calsyntenin-1 peptide] | – | 0.820 µM⁻¹ | -3.762 kcal/mol | -4.305 kcal/mol | 0.67 ± 0.08 | 0.845 µM⁻¹ | -3.911 kcal/mol | -4.174 kcal/mol | 0.541 µM⁻¹ | -4.463 kcal/mol | -3.358 kcal/mol | 0.67 ± 0.07 | 0.739 µM⁻¹ | -4.104 kcal/mol | -3.902 kcal/mol | around 0.7 | only minor effects on binding |
